The experiment addresses T1, PATELLIN2 (PATL2) (Arabidopsis thaliana, UniProt Q56ZI2).
T1 construct: Strep-tagged PATL2 (full length), recombinant from E. coli
T1 sequence (Q56ZI2 2-683): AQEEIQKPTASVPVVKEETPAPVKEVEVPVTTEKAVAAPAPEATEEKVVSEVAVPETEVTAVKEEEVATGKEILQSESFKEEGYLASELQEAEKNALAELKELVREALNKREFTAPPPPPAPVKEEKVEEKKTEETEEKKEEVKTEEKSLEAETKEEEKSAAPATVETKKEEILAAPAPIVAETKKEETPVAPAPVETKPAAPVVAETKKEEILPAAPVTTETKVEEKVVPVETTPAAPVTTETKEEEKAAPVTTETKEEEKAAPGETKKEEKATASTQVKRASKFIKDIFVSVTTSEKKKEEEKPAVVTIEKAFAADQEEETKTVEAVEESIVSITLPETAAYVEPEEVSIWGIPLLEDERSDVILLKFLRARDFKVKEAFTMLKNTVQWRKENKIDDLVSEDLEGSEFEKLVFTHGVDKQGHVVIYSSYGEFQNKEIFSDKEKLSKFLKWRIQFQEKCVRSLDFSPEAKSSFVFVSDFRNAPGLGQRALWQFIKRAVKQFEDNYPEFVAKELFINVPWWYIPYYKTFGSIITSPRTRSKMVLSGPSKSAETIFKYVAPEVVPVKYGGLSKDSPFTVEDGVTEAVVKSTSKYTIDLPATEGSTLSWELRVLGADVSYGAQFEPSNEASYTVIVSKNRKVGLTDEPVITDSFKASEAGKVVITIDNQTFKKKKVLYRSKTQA
As to the kind of experiment: spectrofluorimetric titration of NBD fluorescence with […] purified protein. Format: binding.

Usually Kd stands for the concentration at which binding is half-saturated. Higher therefore signals lower affinity.

Consider NBD-α-tocopherol [NBD-Toc], for which the Kd was 86 nM.

The record behind these values is article PMC10152663, “SEC14-GOLD protein PATELLIN2 binds IRON-REGULATED TRANSPORTER1 linking root iron uptake to vitamin E” (Plant Physiology, 2022).
